pEC50, pIC50: −log10 of the molar value.
What was measured:
dengue virus type 2 [1] = assay: Antiviral activity against Dengue virus 2 measured at 48 hrs post-infection; type: functional, organism-based; conditions: for pEC50: Dengue virus, 48 h, read-out: EC50
Genome polyprotein [2] = molecular target: T1, Genome polyprotein (dengue virus type 2, UniProt P29990); assay: Inhibition of DENV2 NS2B-NS3 protease; conditions: for pIC50: read-out: IC50
[3] = Cytotoxicity against monkey LLC-MK2 cells assessed as reduction in cell viability by MTT assay; type: cell-based, Macaca mulatta; conditions: rhesus monkey
Genome polyprotein [4] = molecular target: T1, Genome polyprotein; assay: Inhibition of DENV2 NS2B-NS3 protease assessed as inhibition of protease intermolecular processing
dengue virus type 2 [5] = assay: Antiviral activity against Dengue virus 2 infected in human A549 cells assessed as reduction in viral titer production measured after 48 hrs by plaque reduction assay; type: functional, organism-based; conditions: A549, 48 h
dengue virus type 2 [6] = assay: Antiviral activity against Dengue virus 2 EDEN2 infected in human Huh-7 cells; type: functional, organism-based; conditions: EDEN2, Huh-7
[7] = Cytotoxicity against human Huh-7 cells assessed as reduction in cell viability; type: cell-based
dengue virus type 2 [8] = assay: Antiviral activity against DENV2 D2Y10 virus infected in human PBMC cells in presence of 4G2 antibody; type: functional, organism-based
[9] = Cytotoxicity against human PBMC assessed as reduction in cell viability

T1 sequence (P29990 1346-1475 limits assumed): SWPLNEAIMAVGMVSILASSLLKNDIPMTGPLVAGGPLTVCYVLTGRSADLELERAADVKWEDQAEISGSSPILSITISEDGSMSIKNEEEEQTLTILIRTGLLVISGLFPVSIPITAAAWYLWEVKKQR
T1 sequence (P29990 1476-2093 limits assumed): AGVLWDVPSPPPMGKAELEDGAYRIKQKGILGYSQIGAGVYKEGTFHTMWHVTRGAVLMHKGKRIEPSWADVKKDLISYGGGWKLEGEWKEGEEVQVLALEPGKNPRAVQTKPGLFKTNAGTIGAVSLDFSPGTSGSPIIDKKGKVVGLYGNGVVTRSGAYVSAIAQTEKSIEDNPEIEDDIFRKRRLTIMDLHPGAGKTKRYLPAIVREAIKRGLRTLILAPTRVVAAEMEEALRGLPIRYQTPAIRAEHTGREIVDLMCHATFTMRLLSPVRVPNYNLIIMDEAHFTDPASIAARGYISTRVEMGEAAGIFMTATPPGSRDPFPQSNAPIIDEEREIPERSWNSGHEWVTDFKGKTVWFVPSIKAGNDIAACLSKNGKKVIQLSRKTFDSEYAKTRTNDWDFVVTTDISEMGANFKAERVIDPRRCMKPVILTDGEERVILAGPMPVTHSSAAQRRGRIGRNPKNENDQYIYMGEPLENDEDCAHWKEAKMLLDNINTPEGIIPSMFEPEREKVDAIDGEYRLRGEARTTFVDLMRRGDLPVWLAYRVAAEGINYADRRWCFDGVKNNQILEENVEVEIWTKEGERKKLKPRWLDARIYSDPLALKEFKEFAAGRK

| Structure (SMILES) | pEC50 (dengue virus type 2 [1]) | also measured |
| --- | --- | --- |
| Cn1c2ccc(-c3cccc(/C(N)=N/O)c3)cc2c2cc(-c3cccc(/C(N)=N/O)c3)ccc21 |  | EC50 (dengue virus type 2 [1]): Not Active |
| CN(C)CCCn1c2ccc(-c3cccc(/C(N)=N/O)c3)cc2c2cc(-c3cccc(/C(N)=N/O)c3)ccc21 |  | EC50 (dengue virus type 2 [1]): Not Active |
| COc1cccc(Cn2c3ccc(-c4cccc(C(=N)N)c4)cc3c3cc(-c4cccc(C(=N)N)c4)ccc32)c1 | 5.18 | pIC50 (Genome polyprotein [2]): 5.57 |
| N=C(N)c1cccc(-c2ccc3c(c2)c2cc(-c4cccc(C(=N)N)c4)ccc2n3S(=O)(=O)c2cccc(OC(F)(F)F)c2)c1 | 5.09 | pIC50 (Genome polyprotein [2]): 5.51 |
| COc1ccc(Br)cc1S(=O)(=O)n1c2ccc(-c3cccc(/C(N)=N/O)c3)cc2c2cc(-c3cccc(/C(N)=N/O)c3)ccc21 | 5.31 |  |
| COc1ccc(S(=O)(=O)n2c3ccc(-c4cccc(/C(N)=N/O)c4)cc3c3cc(-c4cccc(/C(N)=N/O)c4)ccc32)cc1 | 5.02 | IC50 (Genome polyprotein [2]): Not Active |
| N/C(=N\O)c1cccc(-c2ccc3c(c2)c2cc(-c4cccc(/C(N)=N/O)c4)ccc2n3S(=O)(=O)c2cc(F)cc(Br)c2)c1 | 4.76 |  |
| Cc1ccccc1S(=O)(=O)n1c2ccc(-c3cccc(/C(N)=N/O)c3)cc2c2cc(-c3cccc(/C(N)=N/O)c3)ccc21 | 5.07 |  |
| N/C(=N\O)c1cccc(-c2ccc3c(c2)c2cc(-c4cccc(/C(N)=N/O)c4)ccc2n3S(=O)(=O)c2ccc(Br)cc2)c1 | 5.27 |  |
| N=C(N)c1cccc(-c2ccc3c(c2)c2cc(-c4cccc(C(=N)N)c4)ccc2n3S(=O)(=O)c2ccccc2OC(F)(F)F)c1 | 5.25 | pIC50 (Genome polyprotein [2]): 5.01 |
| O=C1c2c(O)ccc([N+](=O)[O-])c2C(=O)c2c([N+](=O)[O-])ccc(O)c21 |  | CC50 [3]: 69.4 µM; pIC50 (Genome polyprotein [4]): 3.36 |
| O=C1C=C/C(=N/Nc2ccc([N+](=O)[O-])cc2Cl)C=C1C(=O)Nc1cccc(Cl)c1 |  | pEC50 (dengue virus type 2 [5]): 6.09 |
| N/C(=N\O)c1cccc(-c2ccc3c(c2)c2cc(-c4cccc(/C(N)=N/O)c4)ccc2n3Cc2ccc(F)cc2)c1 | 5.09 |  |
| COc1ccc(S(=O)(=O)n2c3ccc(-c4cccc(/C(N)=N/O)c4)cc3c3cc(-c4cccc(/C(N)=N/O)c4)ccc32)cc1F | 5.57 |  |
| N=C(N)c1cccc(-c2ccc3c(c2)c2cc(-c4cccc(C(=N)N)c4)ccc2n3S(=O)(=O)c2cccc(C(F)(F)F)c2)c1 | 5.14 | pIC50 (Genome polyprotein [2]): 5.54 |
| N/C(=N\O)c1cccc(-c2ccc3c(c2)c2cc(-c4cccc(/C(N)=N/O)c4)ccc2n3CC(O)CS(=O)(=O)c2cccc(F)c2)c1 (stereo unspecified) | 5.06 |  |
| N/C(=N\O)c1cccc(-c2ccc3c(c2)c2cc(-c4cccc(/C(N)=N/O)c4)ccc2n3Cc2ccc3c(c2)OCO3)c1 | 5.30 |  |
| N=C(N)c1cccc(-c2ccc3c(c2)c2cc(-c4cccc(C(=N)N)c4)ccc2n3Cc2cccc(Br)c2)c1 |  | pEC50 (dengue virus type 2 [6]): 4.78; CC50 [7]: 100 µM; pEC50 (dengue virus type 2 [8]): 4.32; CC50 [9]: > 100 µM |
| N/C(=N\O)c1cccc(-c2ccc3c(c2)c2cc(-c4cccc(/C(N)=N/O)c4)ccc2n3S(=O)(=O)c2ccc(C(F)(F)F)cc2)c1 | 5.31 |  |
| N/C(=N\O)c1cccc(-c2ccc3c(c2)c2cc(-c4cccc(/C(N)=N/O)c4)ccc2n3S(=O)(=O)c2cccc(Br)c2)c1 | 5.62 |  |
| COc1ccc(S(=O)(=O)n2c3ccc(-c4cccc(C(=N)N)c4)cc3c3cc(-c4cccc(C(=N)N)c4)ccc32)cc1 | 5.02 | pIC50 (Genome polyprotein [2]): 5.18 |
| CCn1c2ccc(-c3cccc(/C(N)=N/O)c3)cc2c2cc(-c3cccc(/C(N)=N/O)c3)ccc21 | 5.82 |  |
| COc1cccc(Cn2c3ccc(-c4cccc(-c5noc(=O)[nH]5)c4)cc3c3cc(-c4cccc(-c5noc(=O)[nH]5)c4)ccc32)c1 | 4.84 | pIC50 (Genome polyprotein [2]): 3.92 |
| N/C(=N\O)c1cccc(-c2ccc3c(c2)c2cc(-c4cccc(/C(N)=N/O)c4)ccc2n3S(=O)(=O)c2cccc(F)c2)c1 | 5.51 |  |
| N/C(=N\O)c1cccc(-c2ccc3c(c2)c2cc(-c4cccc(/C(N)=N/O)c4)ccc2n3S(=O)(=O)c2cccc(Cl)c2)c1 | 5.12 |  |

Reference: ChEMBL document CHEMBL4842342, “Amidoxime prodrugs convert to potent cell-active multimodal inhibitors of the dengue virus protease” (Eur J Med Chem, 2021)
